Experimental data from US20170008888A1 (KYORIN PHARMACEUTICAL CO., LTD., priority 2014, published 2017).
Like-named read-outs stand apart in the source and are kept apart here.

Assays:
Assay type in all cases: binding
[1] = target: T1, AurA (Homo sapiens, UniProt O14965); experiment: Probe-based (AX9989) kinase profiling in Jurkat lysate: AurA; settings: for inhibition at 0.1 µM: screening concentration 0.1 μM
T1 construct: screened for activity against several kinases in Jurkat cells; endogenous in cells; host or cells: Jurkat cell lysate
T1 sequence (O14965 1-403): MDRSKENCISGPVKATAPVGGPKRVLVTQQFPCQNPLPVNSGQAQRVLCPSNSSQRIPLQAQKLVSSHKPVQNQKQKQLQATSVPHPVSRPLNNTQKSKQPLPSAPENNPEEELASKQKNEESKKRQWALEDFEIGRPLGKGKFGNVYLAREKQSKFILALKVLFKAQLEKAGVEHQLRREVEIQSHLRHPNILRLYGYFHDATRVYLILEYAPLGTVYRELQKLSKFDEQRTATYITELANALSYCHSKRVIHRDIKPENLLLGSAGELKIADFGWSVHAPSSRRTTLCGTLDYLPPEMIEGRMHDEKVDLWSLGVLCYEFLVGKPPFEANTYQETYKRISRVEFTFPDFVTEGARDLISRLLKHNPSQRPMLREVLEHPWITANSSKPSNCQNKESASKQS
Summary of the method: (§1)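 Percent inhibition was derived from reduced LC/MS fragment intensities of probe-labeled peptides relative to compound-free controls. Before labeling with 5 μM AX9989, Mn2+-supplemented (20 mM) Jurkat lysate was exposed to compound for 15 min at room temperature.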

[2] = system: AurB or AurC; experiment: Probe-based (AX9989) kinase profiling in Jurkat lysate: AurB or AurC
Summary of the method: as §1

[3] = system: AMPKa1 or AMPKa2; experiment: Probe-based (AX9989) kinase profiling in Jurkat lysate: AMPKa1 or AMPKa2
Summary of the method: as §1

[4] = target: T2, TAO2 (Homo sapiens, UniProt Q9UL54); experiment: Probe-based (AX9989) kinase profiling in Jurkat lysate: TAO2; settings: for inhibition at 0.1 µM: screening concentration 0.1 μM
T2 construct: screened for activity against several kinases in Jurkat cells; endogenous in cells; host or cells: Jurkat cell lysate
T2 sequence (Q9UL54 1-1235): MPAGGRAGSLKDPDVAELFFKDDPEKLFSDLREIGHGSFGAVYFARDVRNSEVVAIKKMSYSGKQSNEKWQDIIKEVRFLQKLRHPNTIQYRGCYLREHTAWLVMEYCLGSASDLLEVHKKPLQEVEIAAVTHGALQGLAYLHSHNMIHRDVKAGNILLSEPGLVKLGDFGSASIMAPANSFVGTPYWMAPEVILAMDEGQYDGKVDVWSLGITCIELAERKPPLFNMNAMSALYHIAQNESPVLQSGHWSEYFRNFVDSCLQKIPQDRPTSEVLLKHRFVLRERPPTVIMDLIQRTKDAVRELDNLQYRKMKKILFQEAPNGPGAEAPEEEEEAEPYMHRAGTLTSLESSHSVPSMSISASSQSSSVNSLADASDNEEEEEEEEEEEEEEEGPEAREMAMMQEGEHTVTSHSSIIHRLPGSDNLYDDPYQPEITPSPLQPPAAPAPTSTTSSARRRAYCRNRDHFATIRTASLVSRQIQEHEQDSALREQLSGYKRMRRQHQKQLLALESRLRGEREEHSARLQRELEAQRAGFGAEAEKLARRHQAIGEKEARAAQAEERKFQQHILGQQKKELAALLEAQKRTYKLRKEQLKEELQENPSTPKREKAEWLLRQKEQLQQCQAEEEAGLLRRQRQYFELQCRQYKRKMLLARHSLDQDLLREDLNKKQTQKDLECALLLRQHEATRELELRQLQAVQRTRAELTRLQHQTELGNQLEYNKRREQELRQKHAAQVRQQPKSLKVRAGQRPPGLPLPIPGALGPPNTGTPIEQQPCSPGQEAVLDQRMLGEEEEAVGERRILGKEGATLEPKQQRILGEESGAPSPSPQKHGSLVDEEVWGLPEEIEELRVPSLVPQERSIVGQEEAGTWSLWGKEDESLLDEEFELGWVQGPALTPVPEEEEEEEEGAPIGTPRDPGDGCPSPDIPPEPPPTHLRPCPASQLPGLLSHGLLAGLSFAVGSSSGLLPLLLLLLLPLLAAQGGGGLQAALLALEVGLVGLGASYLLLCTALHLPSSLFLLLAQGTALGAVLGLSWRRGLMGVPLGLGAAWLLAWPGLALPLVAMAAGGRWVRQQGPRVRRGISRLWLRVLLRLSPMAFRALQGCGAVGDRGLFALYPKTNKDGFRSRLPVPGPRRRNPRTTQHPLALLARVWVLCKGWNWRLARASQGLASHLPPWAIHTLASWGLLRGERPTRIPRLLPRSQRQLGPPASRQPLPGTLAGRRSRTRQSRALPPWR
Summary of the method: as §1

[5] = screening concentration 1.0 μM, read-out: Kinase inhibition % at indicated screening concentration: AurA
[6] = screening concentration 1.0 μM, read-out: Kinase inhibition % at indicated screening concentration: TAO2
[7] = screening concentration 1 μM, read-out: AurA Inhibition % at indicated screening concentration
[8] = screening concentration 1 μM, read-out: TAO2 Inhibition % at indicated screening concentration
[9] = read-out: Kinase inhibition % at indicated screening concentration: AurA
[10] = read-out: Kinase inhibition % at indicated screening concentration: TAO2

Structure (SMILES) | inhibition at 1 µM [1, 5] | Kinase inhibition % at indicated screening concentration: AurB or AurC ([2]; screening concentration 1.0 μM) | Kinase inhibition % at indicated screening concentration: AMPKa1 or AMPKa2 ([3]; screening concentration 1.0 μM) | inhibition at 1 µM [4, 6] | inhibition at 1 µM [1, 7] | AurB or AurC Inhibition % at indicated screening concentration ([2]; screening concentration 1 μM) | AMPKa1 or AMPKa2 Inhibition % at indicated screening concentration ([3]; screening concentration 1 μM) | inhibition at 1 µM [4, 8] | further results
CCOc1cc(C(=O)N2CC[C@H](N(C)C)C2)ccc1Nc1cc2c(cn1)N(C)C(=O)c1ccccc1N2C [Compound 75] | ≤ 35% | E (E is ≦35%) | E (E is ≦35%) | ≤ 35% |  |  |  |  | 
CCOc1cc(C(=O)NCCO)ccc1Nc1cc2c(cn1)N(C)C(=O)c1ccccc1N2C [Compound 66] | ≤ 35% | E (E is ≦35%) | E (E is ≦35%) | ≤ 35% |  |  |  |  | 
CCOc1cc(C(=O)N2CCN(c3cccnc3)CC2)ccc1Nc1cc2c(cn1)N(C)C(=O)c1occc1N2C [Compound T56] |  |  |  |  | ≤ 35% | E (E is ≦35%) | E (E is ≦35%) | ≤ 35% | 
CCOc1cc(C(=O)N2CC[C@@H](N3CCN(C)CC3)C2)ccc1Nc1cc2c(cn1)N(C)C(=O)c1ccccc1N2C [Compound T20] |  |  |  |  | ≤ 35% | E (E is ≦35%) | E (E is ≦35%) | ≤ 35% | 
CN1CCN(C2CCN(C(=O)c3ccc(Nc4cc5c(cn4)N(C)C(=O)c4ccccc4N5C)c(OCCF)c3)CC2)CC1 [Compound T34] |  |  |  |  | ≤ 35% | E (E is ≦35%) | E (E is ≦35%) | ≤ 35% | 
CCOc1cc(C(=O)N2CCN(C(C)=O)CC2)ccc1Nc1cc2c(cn1)N(C)C(=O)c1ccccc1N2C [Compound T18] |  |  |  |  | ≤ 35% | E (E is ≦35%) | E (E is ≦35%) | ≤ 35% | 
CCOc1cc(C(=O)N2CCC(N3CC[C@@H](O)C3)CC2)ccc1Nc1cc2c(cn1)N(C)C(=O)c1ccccc1N2C [Compound T10] |  |  |  |  | ≤ 35% | E (E is ≦35%) | E (E is ≦35%) | ≤ 35% | 
COc1cc(NS(C)(=O)=O)ccc1Nc1cc2c(cn1)N(C)C(=O)c1ccccc1N2C [Compound 73] | ≤ 35% | E (E is ≦35%) | E (E is ≦35%) | ≤ 35% |  |  |  |  | 
CCOc1cc(C(=O)N2CCCNCC2)ccc1Nc1cc2c(cn1)N(C)C(=O)c1ccccc1N2C [Compound 71] | ≤ 35% | E (E is ≦35%) | E (E is ≦35%) | ≤ 35% |  |  |  |  | 
CCOc1cc(C(=O)N(C)CCN(C)C)ccc1Nc1cc2c(cn1)N(C)C(=O)c1ccccc1N2C [Compound 88] |  |  |  |  |  |  |  |  | inhibition at 0.1 µM [1, 9]: ≤ 35%; Kinase inhibition % at indicated screening concentration: AurB or AurC ([2]; screening concentration 0.1 μM): E (E is ≦35%); Kinase inhibition % at indicated screening concentration: AMPKa1 or AMPKa2 ([3]; screening concentration 0.1 μM): E (E is ≦35%); inhibition at 0.1 µM [4, 10]: ≤ 35%
CCOc1cc(C(=O)N2CCN(CC)CC2)ccc1Nc1cc2c(cn1)N(C)C(=O)c1ccccc1N2C [Compound 108] | ≤ 35% | E (E is ≦35%) | E (E is ≦35%) | ≤ 35% |  |  |  |  | 
Cc1cc(CN2CC[C@@H](N3CCCC3)C2)ccc1Nc1cc2c(cn1)N(C)C(=O)c1ccccc1N2C [Compound 49] |  |  |  |  |  |  |  |  | inhibition at 0.1 µM [1, 9]: ≤ 35%; Kinase inhibition % at indicated screening concentration: AurB or AurC ([2]; screening concentration 0.1 μM): E (E is ≦35%); Kinase inhibition % at indicated screening concentration: AMPKa1 or AMPKa2 ([3]; screening concentration 0.1 μM): E (E is ≦35%); inhibition at 0.1 µM [4, 10]: ≤ 35%
CCOc1cc(C(=O)N2CCC(OC)CC2)ccc1Nc1cc2c(cn1)N(C)C(=O)c1ccccc1N2C [Compound 63] | ≤ 35% | E (E is ≦35%) | E (E is ≦35%) | ≤ 35% |  |  |  |  | 
CCOc1cc(C(=O)N2CCC(N3CCCN(C)CC3)CC2)ccc1Nc1cc2c(cn1)N(C)C(=O)c1ccccc1N2C [Compound T31] |  |  |  |  | ≤ 35% | E (E is ≦35%) | E (E is ≦35%) | ≤ 35% | 
CCOc1cc(C(=O)NCCc2ccncc2)ccc1Nc1cc2c(cn1)N(C)C(=O)c1ccccc1N2C [Compound 107] | ≤ 35% | E (E is ≦35%) | E (E is ≦35%) | ≤ 35% |  |  |  |  | 
CN1C(=O)c2c(F)cccc2Oc2cc(N[C@H]3CC[C@H](O)CC3)ncc21 [Compound T92] |  |  |  |  |  |  |  |  | inhibition at 10 µM ([1]; screening concentration 10 μM, read-out: AurA Inhibition % at indicated screening concentration): ≤ 35%; AurB or AurC Inhibition % at indicated screening concentration ([2]; screening concentration 10 μM): D (D is >35% to ≦50%); AMPKa1 or AMPKa2 Inhibition % at indicated screening concentration ([3]; screening concentration 10 μM): E (E is ≦35%); inhibition at 10 µM ([4]; screening concentration 10 μM, read-out: TAO2 Inhibition % at indicated screening concentration): 50 to 75%
CCOc1cc(C(=O)N2CCC(N3CCN(C)CC3)CC2)ccc1Nc1cc2c(cn1)N(C)C(=O)c1ccccc1N2C [Compound 61] | ≤ 35% | E (E is ≦35%) | E (E is ≦35%) | ≤ 35% |  |  |  |  | 
